ChEMBL document CHEMBL1201862, “PubChem BioAssay data set” (2004)
The source made the active and inactive calls.

What was measured:
Protein RecA = target: T1, Protein RecA (Mycobacterium tuberculosis, UniProt P9WHJ3); experiment: Fluorescence Cell-Free Homogeneous Dose Retest to Identify Inhibitors of RecA-Intein Splicing Activity. [Related pubchem assays (depositor defined):AID2097, AID2223, AID489010, AID492950]; format: functional
T1 sequence (P9WHJ3 whole entry): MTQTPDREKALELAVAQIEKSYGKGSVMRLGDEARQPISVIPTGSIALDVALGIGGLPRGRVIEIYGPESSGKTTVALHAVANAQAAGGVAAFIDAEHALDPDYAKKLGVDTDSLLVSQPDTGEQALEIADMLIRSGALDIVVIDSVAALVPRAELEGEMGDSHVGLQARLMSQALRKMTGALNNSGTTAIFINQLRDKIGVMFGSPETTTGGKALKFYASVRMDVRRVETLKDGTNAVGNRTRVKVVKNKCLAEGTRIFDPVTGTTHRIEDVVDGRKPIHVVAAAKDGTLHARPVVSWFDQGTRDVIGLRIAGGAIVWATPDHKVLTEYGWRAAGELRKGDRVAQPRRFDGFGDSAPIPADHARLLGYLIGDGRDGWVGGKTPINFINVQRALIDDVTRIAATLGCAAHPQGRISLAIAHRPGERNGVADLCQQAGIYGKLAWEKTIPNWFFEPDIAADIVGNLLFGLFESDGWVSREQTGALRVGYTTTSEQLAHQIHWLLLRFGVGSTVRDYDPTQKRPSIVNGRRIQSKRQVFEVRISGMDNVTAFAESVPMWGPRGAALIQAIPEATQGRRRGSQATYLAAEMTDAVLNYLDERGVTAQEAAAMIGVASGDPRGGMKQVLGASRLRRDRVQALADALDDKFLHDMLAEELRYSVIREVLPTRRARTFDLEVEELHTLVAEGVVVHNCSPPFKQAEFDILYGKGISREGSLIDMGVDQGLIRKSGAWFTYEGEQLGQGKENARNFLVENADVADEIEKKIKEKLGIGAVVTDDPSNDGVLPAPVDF

[1] = target: T2, Type-1 angiotensin II receptor (Homo sapiens, UniProt P30556); experiment: AT1 receptor antagonists, dose response, selectivity assay for APJ receptor antagonist project, cell-based, uHTS hits (AID 463214); format: functional;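 also: antagonist potency against angiotensin II stimulated AT1 response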
T2 sequence (P30556 whole entry): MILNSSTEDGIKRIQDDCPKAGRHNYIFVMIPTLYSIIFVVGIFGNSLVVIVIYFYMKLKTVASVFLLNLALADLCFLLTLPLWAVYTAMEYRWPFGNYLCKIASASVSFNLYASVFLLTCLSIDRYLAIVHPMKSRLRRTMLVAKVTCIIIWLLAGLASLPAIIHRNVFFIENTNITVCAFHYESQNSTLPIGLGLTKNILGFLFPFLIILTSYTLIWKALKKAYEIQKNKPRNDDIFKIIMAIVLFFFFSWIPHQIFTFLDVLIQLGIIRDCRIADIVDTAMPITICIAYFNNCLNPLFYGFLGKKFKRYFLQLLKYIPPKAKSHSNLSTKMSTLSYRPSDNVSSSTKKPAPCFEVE

[2] = THP-1 cell cytotoxicity, dose response, cytotoxicity control for non-replicating M. tuberculosis project (AID 489025); format: functional
Large T antigen = Large T antigen (Simian virus 40, UniProt P03070); format: functional, Betapolyomavirus macacae;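 also: Confirmatory-stage PubChem screen for compounds that inhibit SV40 T antigen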
Chain of Large T antigen (P03070 whole entry): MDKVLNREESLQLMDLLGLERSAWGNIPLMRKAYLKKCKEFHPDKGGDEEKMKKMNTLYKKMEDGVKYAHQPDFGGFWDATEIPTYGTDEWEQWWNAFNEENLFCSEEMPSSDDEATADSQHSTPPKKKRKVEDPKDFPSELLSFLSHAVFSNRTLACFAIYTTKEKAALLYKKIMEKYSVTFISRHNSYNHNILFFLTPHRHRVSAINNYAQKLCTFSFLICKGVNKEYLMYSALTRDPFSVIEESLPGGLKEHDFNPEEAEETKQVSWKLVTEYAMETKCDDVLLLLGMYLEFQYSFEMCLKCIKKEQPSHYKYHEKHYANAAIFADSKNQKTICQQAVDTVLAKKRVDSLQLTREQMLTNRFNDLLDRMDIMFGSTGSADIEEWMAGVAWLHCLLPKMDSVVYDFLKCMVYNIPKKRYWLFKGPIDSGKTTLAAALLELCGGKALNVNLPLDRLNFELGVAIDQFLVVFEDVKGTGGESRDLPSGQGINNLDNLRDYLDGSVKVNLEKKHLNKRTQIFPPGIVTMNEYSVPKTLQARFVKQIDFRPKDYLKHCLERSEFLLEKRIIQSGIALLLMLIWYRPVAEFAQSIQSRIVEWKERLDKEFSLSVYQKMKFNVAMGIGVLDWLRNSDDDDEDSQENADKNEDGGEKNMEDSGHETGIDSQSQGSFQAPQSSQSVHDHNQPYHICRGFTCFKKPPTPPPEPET

Melanocortin receptor 4 = Melanocortin receptor 4 (Homo sapiens, UniProt P32245); experiment: MC4R antagonist potency on cAMP, dose response, cell-based, TR-FRET, biased antagonists (AID 602298); format: functional;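 also: antagonist potency against agonist-stimulated cAMP production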
Chain of Melanocortin receptor 4 (P32245 whole entry): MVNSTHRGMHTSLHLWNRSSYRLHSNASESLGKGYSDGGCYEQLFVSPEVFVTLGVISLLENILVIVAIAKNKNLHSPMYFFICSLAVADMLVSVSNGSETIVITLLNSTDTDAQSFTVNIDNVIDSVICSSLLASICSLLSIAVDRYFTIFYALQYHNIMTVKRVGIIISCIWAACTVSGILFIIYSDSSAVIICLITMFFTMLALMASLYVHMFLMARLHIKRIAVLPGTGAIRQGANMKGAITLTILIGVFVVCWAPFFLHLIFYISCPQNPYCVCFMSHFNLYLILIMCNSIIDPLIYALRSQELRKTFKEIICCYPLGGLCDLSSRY

[3] = inhibitors of fibronectin matrix deposition, dose response, AH1F cells, Alexa488-FN fluorescence, cherry-picks (AID 1035475); format: functional, cell-based
[4] = HepG2 cell cytotoxicity, dose response, cytotoxicity control, cherry-picks, set 5 (AID 1053118); format: functional, cell-based
CHO = experiment: cytotoxicity in TLR9-MyD88 CHO cells, dose response, cytotoxicity control for TLR9-MyD88 binding inhibitor project, cell-based, luminescence (AID 588339); format: functional, hamster; details: Cricetulus griseus;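 also: CHO cells stably coexpressing TLR9 and MyD88 fusions from primary screen; compound exposure lasted 48 hours before viability readout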
[5] = target: T3, Replicative DNA helicase DnaB (Mycobacterium tuberculosis, UniProt P9WMR3); experiment: DnaB intein splicing inhibitors, dose response, biochemical, cell-free fluorescence (AID 449749); format: functional
T3 sequence (P9WMR3 whole entry): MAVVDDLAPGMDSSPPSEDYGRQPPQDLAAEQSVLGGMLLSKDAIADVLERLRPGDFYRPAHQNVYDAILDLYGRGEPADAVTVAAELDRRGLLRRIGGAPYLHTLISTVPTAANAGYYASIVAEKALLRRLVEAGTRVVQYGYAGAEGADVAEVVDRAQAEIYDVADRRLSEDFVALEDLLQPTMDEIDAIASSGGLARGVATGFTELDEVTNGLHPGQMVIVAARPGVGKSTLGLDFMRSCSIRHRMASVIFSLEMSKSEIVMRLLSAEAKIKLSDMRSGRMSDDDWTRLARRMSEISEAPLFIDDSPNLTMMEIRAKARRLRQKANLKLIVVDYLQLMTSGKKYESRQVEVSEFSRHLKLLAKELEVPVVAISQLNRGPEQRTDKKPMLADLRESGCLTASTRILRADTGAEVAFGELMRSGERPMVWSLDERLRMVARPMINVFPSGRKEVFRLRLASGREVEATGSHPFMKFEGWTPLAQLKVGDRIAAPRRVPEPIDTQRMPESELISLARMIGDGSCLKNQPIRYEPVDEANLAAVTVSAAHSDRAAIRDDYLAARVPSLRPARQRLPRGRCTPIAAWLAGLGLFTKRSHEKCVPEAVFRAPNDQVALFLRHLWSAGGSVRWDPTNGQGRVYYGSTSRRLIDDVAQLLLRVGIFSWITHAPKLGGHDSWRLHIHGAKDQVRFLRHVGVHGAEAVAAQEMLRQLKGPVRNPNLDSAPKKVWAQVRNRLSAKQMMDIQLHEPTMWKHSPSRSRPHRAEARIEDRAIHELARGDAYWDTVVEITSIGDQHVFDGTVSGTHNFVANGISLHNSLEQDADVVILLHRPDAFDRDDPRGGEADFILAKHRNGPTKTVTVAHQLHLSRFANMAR

Beta-galactosidase = Beta-galactosidase (Escherichia coli, UniProt Q8VNN2); experiment: PubChem AID 485352; format: functional
Chain of Beta-galactosidase (Q8VNN2 whole entry): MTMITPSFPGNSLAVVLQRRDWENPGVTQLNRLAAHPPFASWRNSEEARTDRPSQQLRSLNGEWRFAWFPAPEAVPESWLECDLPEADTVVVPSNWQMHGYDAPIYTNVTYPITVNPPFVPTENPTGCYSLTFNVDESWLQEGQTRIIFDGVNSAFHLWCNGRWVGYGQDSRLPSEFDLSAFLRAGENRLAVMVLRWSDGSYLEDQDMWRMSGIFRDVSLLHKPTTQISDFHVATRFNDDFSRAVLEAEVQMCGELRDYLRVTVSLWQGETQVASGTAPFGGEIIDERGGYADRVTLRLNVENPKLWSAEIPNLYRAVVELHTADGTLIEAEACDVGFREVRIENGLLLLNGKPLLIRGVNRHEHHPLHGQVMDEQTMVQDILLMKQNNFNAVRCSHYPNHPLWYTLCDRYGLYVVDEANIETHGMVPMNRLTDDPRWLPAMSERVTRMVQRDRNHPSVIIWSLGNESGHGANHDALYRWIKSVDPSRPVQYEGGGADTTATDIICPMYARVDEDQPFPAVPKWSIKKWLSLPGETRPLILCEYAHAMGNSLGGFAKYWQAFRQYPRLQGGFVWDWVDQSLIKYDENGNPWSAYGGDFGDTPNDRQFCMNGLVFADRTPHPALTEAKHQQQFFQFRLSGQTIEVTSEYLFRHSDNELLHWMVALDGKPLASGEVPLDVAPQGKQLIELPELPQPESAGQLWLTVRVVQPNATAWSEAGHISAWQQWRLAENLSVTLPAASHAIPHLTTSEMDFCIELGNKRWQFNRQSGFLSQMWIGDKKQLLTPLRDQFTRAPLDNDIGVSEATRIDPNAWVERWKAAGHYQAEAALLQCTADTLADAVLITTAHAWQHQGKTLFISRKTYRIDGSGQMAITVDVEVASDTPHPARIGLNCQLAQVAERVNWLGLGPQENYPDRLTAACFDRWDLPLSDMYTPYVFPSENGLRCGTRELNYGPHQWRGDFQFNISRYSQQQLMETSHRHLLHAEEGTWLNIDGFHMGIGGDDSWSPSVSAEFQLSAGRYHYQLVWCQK

[6] = cytotoxicity toward NIH3T3 fibroblasts, dose response, counter-screen, cell-based, ATP luminescence, mouse fibroblasts (AID 2010); format: functional;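 also: cells exposed to compound for about 90 hours before reading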
[7] = inhibitors of intracellular T. cruzi replication, confirmation, NIH3T3 host cells, beta-gal luminescence (AID 2044); format: functional, cell-based;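 also: intracellular parasites grown in NIH/3T3 mouse fibroblasts as host cells; luminescent beta-galactosidase reporter signal from transgenic T. cruzi replicating inside host cells; inhibitors lower the luminescence signal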
INS1 = experiment: beta cell apoptosis inhibitors, cytokine rescue, dose response, luminescence, retest (AID 449756); format: functional, cell-based; details: Rattus norvegicus;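 also: cell death triggered by IL-1 beta plus TNF-alpha plus IFN-gamma mixture; protective hits raise ATP signal compared with cytokine alone wells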
Paired box protein Pax-8 = Paired box protein Pax-8 (Homo sapiens, UniProt Q06710); experiment: inhibitors of PAX8-driven TPO luciferase reporter, dose response, RMG-I cells, cherry-pick (AID 687027); format: functional, cell-based;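 also: luciferase reporter driven by Pax8 target thyroperoxidase promoter measured by SteadyGlo luminescence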
Chain of Paired box protein Pax-8 (Q06710 whole entry): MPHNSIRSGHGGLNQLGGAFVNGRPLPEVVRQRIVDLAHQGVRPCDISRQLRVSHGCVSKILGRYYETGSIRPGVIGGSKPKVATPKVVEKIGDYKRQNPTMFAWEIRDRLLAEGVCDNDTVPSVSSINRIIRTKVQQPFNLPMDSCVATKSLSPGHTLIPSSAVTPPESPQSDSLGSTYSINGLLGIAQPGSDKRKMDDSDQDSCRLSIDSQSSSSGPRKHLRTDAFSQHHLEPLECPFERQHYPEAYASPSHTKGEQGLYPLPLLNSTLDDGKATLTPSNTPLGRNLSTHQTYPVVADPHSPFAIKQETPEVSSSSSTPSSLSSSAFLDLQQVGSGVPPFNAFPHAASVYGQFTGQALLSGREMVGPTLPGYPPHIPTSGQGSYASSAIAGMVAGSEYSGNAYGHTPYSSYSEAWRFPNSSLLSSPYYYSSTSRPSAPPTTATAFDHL

[8] = nonselective inhibitors of cellular cAMP signaling, dose response, counter-screen for MC4R biased antagonist project, cell-based, TR-FRET cAMP detection (AID 602305); format: functional;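 also: U2OS cells stimulated with forskolin near its EC80 as the cAMP inducer; potency is for inhibition of forskolin-stimulated cAMP signaling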
Beta Lactamase = Beta Lactamase (Pseudomonas aeruginosa, UniProt Q932Y6); experiment: beta-lactamase reporter inhibitor potency, dose response, artefact control for TLR9-MyD88 binding inhibitor project, BLA reporter cells, FRET fluorescence (AID 588341); format: cell-based;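 also: cell based assay in CHO-K1 cells stably expressing beta-lactamase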
Chain of Beta Lactamase (Q932Y6 whole entry): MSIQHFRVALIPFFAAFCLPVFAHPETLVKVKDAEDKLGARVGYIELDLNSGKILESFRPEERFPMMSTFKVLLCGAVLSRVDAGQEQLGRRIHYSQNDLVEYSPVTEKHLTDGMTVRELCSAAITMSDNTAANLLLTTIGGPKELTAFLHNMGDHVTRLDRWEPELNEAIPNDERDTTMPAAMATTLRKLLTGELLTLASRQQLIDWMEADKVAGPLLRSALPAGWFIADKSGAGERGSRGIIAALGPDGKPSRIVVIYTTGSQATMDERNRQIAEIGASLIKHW

[9] = HEK293 cell cytotoxicity, dose response, cytotoxicity control, cherry-picks, set 5 (AID 1053117); format: functional, cell-based
[10] = non-specific cell cytotoxicity, dose response, cytotoxicity control for PAX8 inhibitor project, plate reader, dry powder samples (AID 743021); format: functional, cell-based
[11] = target: T4, Heat shock factor protein 1 (Mus musculus, UniProt P38532); experiment: inhibition of MG132-induced HSE-luciferase signal, confirmation, cell-based, NIH3T3, luminescence, dose retest (AID 2382); format: functional;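 also: NIH3T3 fibroblasts with HSF1-driven luciferase reporter stressed by proteasome inhibitor MG132; luminescence from HSF1-driven luciferase expression after 8 hours of MG132 stress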
T4 sequence (P38532 whole entry): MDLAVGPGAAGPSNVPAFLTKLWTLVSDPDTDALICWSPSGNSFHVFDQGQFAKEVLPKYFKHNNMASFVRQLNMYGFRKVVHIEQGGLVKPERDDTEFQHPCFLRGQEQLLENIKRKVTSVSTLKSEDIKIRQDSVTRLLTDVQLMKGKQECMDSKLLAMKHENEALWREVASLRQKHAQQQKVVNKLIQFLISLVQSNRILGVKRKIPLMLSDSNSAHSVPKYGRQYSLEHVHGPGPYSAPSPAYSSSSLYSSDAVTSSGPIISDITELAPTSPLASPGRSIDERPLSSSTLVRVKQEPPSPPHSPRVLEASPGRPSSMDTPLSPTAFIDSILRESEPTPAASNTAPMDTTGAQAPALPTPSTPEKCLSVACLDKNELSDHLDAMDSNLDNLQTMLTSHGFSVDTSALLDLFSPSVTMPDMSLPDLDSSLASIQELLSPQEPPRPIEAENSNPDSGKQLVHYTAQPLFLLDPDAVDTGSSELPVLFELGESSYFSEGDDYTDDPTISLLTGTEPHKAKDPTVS

In the case of CCS(=O)(=O)c1ncc(Cl)c(C(=O)Nc2ccc(S(=O)(=O)N3CCC(C)CC3)cc2)n1, the EC50 (Protein RecA) is reported as 0.889 µM (active), the IC50 [1] is reported as 6.11 µM (active) and the CC50 [2] is reported as 34.7 µM (active). The IC50 (Large T antigen) was 52.5 µM (active), the IC50 (Melanocortin receptor 4) was > 64.6 µM (inactive) and the AC50 [3] was 5.39 µM (active). The AC50 [4] was 7.65 µM (active), the IC50 (CHO) was 1.81 µM (active) and the AC50 [5] was 1.13 µM (active). For the same compound, the EC50 (Beta-galactosidase) was > 40 µM (inactive), the EC50 [6] was 4.05 µM (active) and the EC50 [7] was 1.72 µM (active). For the same compound, the AC50 (INS1) was 4.66 µM (active), the AC50 (Paired box protein Pax-8) was 3.45 µM (active) and the IC50 [8] was > 64.6 µM (inactive). For the same compound, the IC50 (Beta Lactamase) was 8.61 µM (active), the AC50 [9] was 9.52 µM (active) and the AC50 [10] was 29.3 µM (active). For the same compound, the EC50 [11] was 4.04 µM (active).
